Legend:
[1] = target: T1, BACE1 (Homo sapiens, UniProt P56817); experiment: BACE1 biochemical FRET based assay; details: recombinant BACE1 0.04 μg/ml, 20 μM substrate, 450 min, pH 5.0; for IC50: read-out: BIOCHEMICAL FRET BASED ASSAY pIC50 (converted)
T1 construct: recombinant BACE1 protein in a final concentration of 0.04 μg/ml
Text: (§1) This assay is a Fluorescence Resonance Energy Transfer Assay (FRET) based assay. The substrate for this assay is an APP derived 13 amino acids peptide that contains the ‘Swedish’ Lys-Met/Asn-Leu mutation of the amyloid precursor protein (APP) beta-secretase cleavage site. This substrate also contains two fluorophores: (7-methoxycoumarin-4-yl) acetic acid (Mca) is a fluorescent donor with excitation wavelength at 320 nm and emission at 405 nm and 2,4-Dinitrophenyl (Dnp) is a proprietary quencher acceptor. […] Upon cleavage by BACE1, the fluorophore Mca is separated from the quenching group Dnp, restoring the full fluorescence yield of the donor. The increase in fluorescence is linearly related to the rate of proteolysis.
Briefly in a 384-well format recombinant BACE1 protein in a final concentration of 0.04 μg/ml is incubated for 450 minutes at room temperature with 20 μM substrate in incubation buffer (50 mM Citrate buffer pH 5.0, 0.05% PEG) in the presence of compound or DMSO. Next the amount of proteolysis is directly measured by fluorescence measurement (excitation at 320 nm and emission at 405 nm) at different incubation times (0, 30, 60, 90, 120 and 450 min). For every experiment a time curve (every 30 min between 0 min and 120 min) is used to determine the time where we find the lowest basal signal of the high control. The signal at this time (Tx) is used to subtract from the signal at 450 min. Results are expressed in RFU, as difference between T450 and Tx.
(§2) A best-fit curve is fitted by a minimum sum of squares method to the plot of % Controlmin versus compound concentration. From this an IC50 value (inhibitory concentration causing 50% inhibition of activity) can be obtained. • LC=Median of the low control values=Low control: Reaction without enzyme • HC=Median of the High control values=High Control: Reaction with enzyme
(§3) % Effect=100−[(sample−LC)/(HC−LC)*100]
(§4) % Control=(sample/HC)*100
(§5) % Controlmin=(sample−LC)/(HC−LC)*100

[2] = tested on: Abeta total produced and secreted by SKNBE2 cells expressing hAPP695; experiment: Cellular αLisa assay in SKNBE2 cells, Abeta total; format: cell-based, human; details: SKNBE2 cells expressing hAPP695, 18 hours incubation; for IC50: Homo sapiens, SKNBE2, 18 h, read-out: CELLULAR αLISA ASSAY IN SKNBE2 CELLS ABETA TOTAL pIC50 (converted)
Experimental: (§6) In two αLisa assays the levels of Abeta total and Abeta 1-42 produced and secreted into the medium of human neuroblastoma SKNBE2 cells are quantified. The assay is based on the human neuroblastoma SKNBE2 expressing the wild type Amyloid Precursor Protein (hAPP695). The compounds are diluted and added to these cells, incubated for 18 hours and then measurements of Abeta 1-42 and Abeta total are taken. Abeta total and Abeta 1-42 are measured by sandwich αLisa. αLisa is a sandwich assay using biotinylated antibody AbN/25 attached to streptavidin coated beads and antibody Ab4G8 or cAb42/26 conjugated acceptor beads for the detection of Abeta total and Abeta 1-42 respectively. In the presence of Abeta total or Abeta 1-42, the beads come into close proximity. The excitation of the donor beads provokes the release of singlet oxygen molecules that trigger a cascade of energy transfer in the acceptor beads, resulting in light emission. Light emission is measured after 1 hour incubation (excitation at […] and emission at 615 nm).
as §2, with “cells preincubated” for “Reaction”, “compound, without biotinylated Ab in the αLisa” for “enzyme”, “cells preincubated without compound” for “Reaction with enzyme”
as §3, §4, §5

[3] = tested on: Abeta 1-42 produced and secreted by SKNBE2 cells expressing hAPP695; experiment: Cellular αLisa assay in SKNBE2 cells, Abeta 1-42; format: cell-based, human; details: SKNBE2 cells expressing hAPP695, 18 hours incubation; for IC50: Homo sapiens, SKNBE2, 18 h, read-out: CELLULAR αLISA ASSAY IN SKNBE2 CELLS ABETA 42 PIC50 (converted)
Experimental: as §6
as §2, with “cells preincubated” for “Reaction”, “compound, without biotinylated Ab in the αLisa” for “enzyme”, “cells preincubated without compound” for “Reaction with enzyme”
as §3, §4, §5

[4] = target: T2, BACE2 (Homo sapiens, UniProt Q9Y5Z0); experiment: BACE2 biochemical FRET based assay; details: recombinant BACE2 0.4 μg/ml, 10 μM substrate, 450 min, pH 5.0; for IC50: read-out: BIOCHEMICAL FRET BASED ASSAY pIC50 (converted)
T2 construct: recombinant BACE2 protein in a final concentration of 0.4 μg/ml
T2 sequence (Q9Y5Z0 63-518): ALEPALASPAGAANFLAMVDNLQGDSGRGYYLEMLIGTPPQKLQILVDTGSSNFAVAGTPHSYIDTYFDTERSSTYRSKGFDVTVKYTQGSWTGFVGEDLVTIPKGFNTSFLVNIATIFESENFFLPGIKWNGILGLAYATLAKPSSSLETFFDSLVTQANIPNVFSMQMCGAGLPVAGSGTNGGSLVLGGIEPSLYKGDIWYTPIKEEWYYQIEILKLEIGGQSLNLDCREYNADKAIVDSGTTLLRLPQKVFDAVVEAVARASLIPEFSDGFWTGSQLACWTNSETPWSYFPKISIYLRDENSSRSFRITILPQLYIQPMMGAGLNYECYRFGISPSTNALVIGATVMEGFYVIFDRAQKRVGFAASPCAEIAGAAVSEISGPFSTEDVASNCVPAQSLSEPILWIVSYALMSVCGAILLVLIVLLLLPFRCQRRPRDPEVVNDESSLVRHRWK
Text: as §1, with “assay” for “assay is an APP derived 13 amino acids peptide that”, “the beta-secretase,” for “BACE1,”
Briefly in a 384-well format recombinant BACE2 protein in a final concentration of 0.4 μg/ml is incubated for 450 minutes at room temperature with 10 μM substrate in incubation buffer (50 mM Citrate buffer pH 5.0, 0.05% PEG, no DMSO) in the absence or presence of compound. Next the amount of proteolysis is directly measured by fluorescence measurement at T=0 and T=450 (excitation at 320 nm and emission at 405 nm). Results are expressed in RFU (Relative Fluorescence Units), as difference between T450 and TO.
as §2, §3, §4, §5

T1 sequence (P56817 46-501): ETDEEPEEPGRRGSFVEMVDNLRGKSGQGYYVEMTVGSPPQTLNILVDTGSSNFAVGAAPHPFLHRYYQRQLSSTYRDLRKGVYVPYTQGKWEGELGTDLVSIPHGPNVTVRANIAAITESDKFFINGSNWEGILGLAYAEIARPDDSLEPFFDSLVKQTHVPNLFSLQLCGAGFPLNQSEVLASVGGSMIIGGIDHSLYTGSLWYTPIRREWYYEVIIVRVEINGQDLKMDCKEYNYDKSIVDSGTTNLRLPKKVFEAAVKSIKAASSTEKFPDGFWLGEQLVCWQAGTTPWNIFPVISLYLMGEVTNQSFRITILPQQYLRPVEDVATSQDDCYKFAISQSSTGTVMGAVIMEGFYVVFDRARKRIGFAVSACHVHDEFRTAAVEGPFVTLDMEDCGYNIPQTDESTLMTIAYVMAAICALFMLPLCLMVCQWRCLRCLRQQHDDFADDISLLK

| Structure (SMILES) | IC50 [1] [nM] | IC50 [2] [nM] | IC50 [3] [nM] | IC50 [4] [nM] | BIOCHEMICAL FRET BASED ASSAY pIC50 [1] | CELLULAR αLISA ASSAY IN SKNBE2 CELLS ABETA TOTAL pIC50 [2] | BIOCHEMICAL FRET BASED ASSAY pIC50 [4] | CELLULAR αLISA ASSAY IN SKNBE2 CELLS ABETA 42 PIC50 [3] |
| --- | --- | --- | --- | --- | --- | --- | --- | --- |
| COc1ncc(-c2cc(C#N)ccc2Cl)c2c1C[C@]1(c3ccc(F)cc3F)N=C(N)SC[C@@H]1C2 [Compound 53] |  |  |  |  | 7.97 | 7.9 | 6.84 | 7.84 |
| COc1ncc(-c2ccn[nH]2)c2c1C[C@]1(c3ccc(F)cc3F)N=C(N)SC[C@@H]1C2 (racemic) [Compound 29] | 35.5 | 12.6 | 13.5 | 35.5 |  |  |  |  |
| COc1nccc2c1C[C@]1(c3cc(O)ccc3F)N=C(N)SC[C@@H]1C2 [Compound 36] | 138 | 15.8 | 16.6 | 45.7 |  |  |  |  |
| COc1nccc2c1C[C@@]1(c3cc(O)ccc3F)N=C(N)SC[C@H]1C2 [Compound 183] | 4470 | 3470 | 3090 | 6920 |  |  |  |  |

More lines, main results first:

| IC50 [1] [nM] | IC50 [2] [nM] | IC50 [3] [nM] | IC50 [4] [nM] | BIOCHEMICAL FRET BASED ASSAY pIC50 [1] | CELLULAR αLISA ASSAY IN SKNBE2 CELLS ABETA TOTAL pIC50 [2] | BIOCHEMICAL FRET BASED ASSAY pIC50 [4] | Structure (SMILES) | CELLULAR αLISA ASSAY IN SKNBE2 CELLS ABETA 42 PIC50 [3] |
| --- | --- | --- | --- | --- | --- | --- | --- | --- |
| 158 | 46.8 | 53.7 | 174 |  |  |  | COc1nccc2c1C[C@]1(c3ccccc3F)N=C(N)SC[C@@H]1C2 (racemic) [Compound 2] |  |
| 4790 | 1320 | 1290 | 6170 |  |  |  | COc1nccc2c1C[C@@]1(c3ccc(F)cc3F)N=C(N)SC[C@H]1C2 [Compound 182] |  |

From patent US20200010482A1, “INHIBITORS OF BETA SECRETASE” (Janssen Pharmaceutica NV, priority 2017, published 2020)
